Measured values reported in US4795639A, “Potentiating formulations” (priority 1971, dated 1989).
pIC50: −log10 of the molar value. “And” between values parts separate entries of the source, which are not always exact repeats. Identical values can stand only once.

Tests used:
[1] = tested on: Pasteurella multocida; test: Pasteurella multocida infection in chicks; format: in vivo; conditions: for activity alone against Pasteurella multocida: Example 3 Experiment 1
[2] = tested on: E. tenella; test: coccidiosis screening test in chicks, E. tenella; format: in vivo, Eimeria tenella; conditions: Expt. 4; 100,000 oocysts; p.p.m SQX/DV/DMHP: b374 10/-/-; b375 -/20/-; b376 -/-/10; b377 10/-/10; b378 -/20/10; b379 10/20/-; b381 10/20/10; b382 20/-/-; b383 -/40/-; b384 -/-/20; b385 20/-/20; b386 -/40/20; b387 20/40/-; b389 20/40/20
Method: "Screening tests" were performed to establish the effectiveness of the compounds of formula (I) both alone and in combination with a competitor and or an inhibitor and to determine the most useful levels of relative concentrations of each component in combatting or suppressing coccidiosis.
Groups of Ranger cockerels, housed in small, heated cages with wire floors situated in enironmentally controlled isolation rooms, were infected orally with sporulated oocysts of the Eimeria spp such as E. tenella or E. acervulina. The appropriate test compound(s), (DMHP, sulphaquinoxaline (SQX) or diaveridine (DV) or any combination of these) were incorporated in a small quantity of specially formulated laboratory ration deficient in Vitamin K (`L.D.4 mash`), as a 1/10 pre-mix, which was then mixed into the diet on a horizontal roller drum mixed and administered to groups of chicks one day prior to infection, leaving some groups as untreated controls. Administration was continued for several days, for example about 8 or 9 days.
The amount of damage, marked by lesions in the caecal walls was investigated in those chicks that died during the course of the experiment, and in those sacrificed on the final day of administration, and compared with the untreated controls as a basis for the determination of therapeutic activity. In addition the mortality rate and the percentage weight gains in the various groups were assessed. A marked or definite effect of the administered drug could be recognised even when the mortality rates were similar or identical, since the increase in the weight gains and the reduction of the extension of lesions indicated by the lesion score, is characteristic of an improvement. […]
4:1 sulphaquinoxaline/diaveridine mixtures at levels of 80/20, 60/15, 40/10 and 20/5 p.p.m. were administered alone and in combination with a wide range of low concentrations of DMHP to the birds.
The results of these screening tests are set forth in Table 4 showing the concentration of the various component compounds in parts per million of the bird's diet, the mortality from coccidiosis, the percentage weight gain, the lesion score the oocyst output, and the activity. The caecal lesion index is calculated using a score system where: […]
In addition a score of 4 is assigned to any bird that dies of coccidiosis during the experiment. [formula] In the activity column, +++, ++, +, ± and - relate respectively to very high, high, slight, doubtful and nil activity of the test drug against the Eimeria infection.

[3] = tested on: coccidiosis; test: potentiating effect against coccidiosis; format: in vivo; conditions: replacement of DMHP
[4] = target: T1, hydroxymethyldihydropteridine pyrophosphokinase (HMPPS) (Escherichia coli, UniProt P26281); test: HMPPS assay: transfer of terminal phosphate of ATP-γ-P^32 to Pt; format: biochemical, E. coli; conditions: read-out: IC50
T1 construct: obtained from an extract of E. coli; endogenous in cells; host or cells: E. coli extract; HMPPS separated from synthetase on Sephadex G-100 (method of Richey and Brown 1969)
T1 sequence (P26281 whole entry): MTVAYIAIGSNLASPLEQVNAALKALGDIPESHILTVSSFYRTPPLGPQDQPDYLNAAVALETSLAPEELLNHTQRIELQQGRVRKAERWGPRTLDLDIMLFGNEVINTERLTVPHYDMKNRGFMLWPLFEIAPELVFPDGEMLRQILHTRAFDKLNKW
Excerpt: (a) An assay for HMPPS was developed in which the transfer of the terminal phosphate of ATP-γ-P^32 to Pt could be monitored and correlated with the amount of inhibition of HMPPS by the compound under test.
The compound under test was incorporated into various formulations comprising metabolites and enzymes contained in test tubes, as indicated in TABLE 1.
II--a source of HMMP S, obtained from an extract of E. coli and separated from `synthetase` on Sephadex G-100, according to the method of Richey and Brown in J. Biol. Chem. 244, 1582-1592 (1969)
Control tubes 10 to 12 include a source of both HMPPS and synthetase, unlabelled ATP, 0.1M MgCl2.6H2 O and labelled pAB.
Tubes 1 to 9 containing the amounts of components shown in the Table, were filled up to 200 μl with distilled water, incubated for 60 minutes at 37° C. and then chilled on ice. Dextrose (20 μl containing 72.1 mg/ml) and hexokinase (5 μl containing 2000 units/ml) were added to the solution, which was then allowed to stand at room temperature for 15 minutes. `Darco-G-60` (Registered Trade Mark) (10 mg) was added to each tube and the contents mixed periodically for 10 minutes. The charcoal was removed through a "Millipore AP 250 2200" (Registered Trade Mark) filter and the filter was washed with three 10 ml portions of cold water. The Charcoal and the filter were then radioactively counted.
The radioactive count from the contents of tubes 2 and 3 was taken as the maximum count, since these tubes contained no test compound and thus gave 0% enzyme inhibition. The percentage inhibition produced by the contents of the remaining tubes could then be calculated by relating their radioactive count to the maximum, as determined above.

Row | SMILES | activity alone against Pasteurella multocida [1] | Average Weight of surviving chicks ([1]; Table 5, doses as in E44) | Cumulative Mortality on day 5 ([1]; Table 5, doses as in E44) | Cumulative Mortality on day 6 ([1]; Table 5, doses as in E44) | Cumulative Mortality on day 7 ([1]; Table 5, doses as in E44) | Cumulative Mortality on day 8 ([1]; Table 5, doses as in E44) | Cumulative Mortality on day 9 ([1]; Table 5, doses as in E44) | Cumulative Mortality on day 10 ([1]; Table 5, doses as in E44) | Weight gain (% of control) ([1]; Table 5, percentage of uninfected controls, doses as in E44) | Cumulative Mortality on day 6 ([1]; Table 6, doses as in E56) | Cumulative Mortality on day 7 ([1]; Table 6, doses as in E56) | Cumulative Mortality on day 8 ([1]; Table 6, doses as in E56) | Cumulative Mortality on day 9 ([1]; Table 6, doses as in E56) | Cumulative Mortality on day 10 ([1]; Table 6, doses as in E56) | Cumulative Mortality on day 11 ([1]; Table 6, doses as in E56) | Cumulative Mortality on day 1 ([1]; Table 6, groups of 10 chicks, 15:85 TMP SQX p.p.m / DMHP p.p.m: b654 25/20, b655 25/10, b656 25/5, b657 12.5/20, b658 12.5/10, b659 12.5/5, b660 50/-, b661 25/-, b662 12.5/-, b665 TMP 15, b666 TMP 30, b667 SQX 85, b669 SQX 42.5) | Mortality from Coccidiosis [2] | Cumulative Mortality on day 2 ([1]; Table 5, doses as in E44) | potentiating effect against coccidiosis [3] | pIC50 [4]
1 | Nc1ccc(S(=O)(=O)Nc2cnc3ccccc3n2)cc1 [SQX, sulphaquinoxaline] | good activity alone | 259.5 gm and 234.0 gm | 1 | 1 | 1 | 1 | 1 | 1 | 84 % of control and 69 % of control | 1 | 1 | 1 | 1 | 1 | 1 | 0 | 8/10 and 9/10 |  |  | 
2 | COc1ccc(Cc2cnc(N)nc2N)cc1OC [DV, 2,4-diamino-5-(3',4'-dimethoxybenzyl) pyrimidine] | low activity alone | 140.0 gm | 6 and 5 | 6 and 8 | 7 and 9 | 7 and 10 | 7 | 7 |  |  |  |  |  |  |  |  | 8/10 and 8/9 | 2 and 1 |  | 
3 | CC1=Nc2c(O)nc(N)nc2NC1(C)C [R=Me, R^1=Me, R^2=Me, 2-Amino-4-hydroxy-6-methyl-7,7-dimethyl-7,8-dihydropteridine] |  |  |  |  |  |  |  |  |  |  |  |  |  |  |  |  |  |  | noticeable, athough less marked potentiating effect | 4.12
